From ChEMBL document CHEMBL1201862, “PubChem BioAssay data set” (2004)
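Following 48 hours of exposure in 96-well plates, responses at five concentrations were used to interpolate endpoints linearly. Here, GI50 denotes the concentration required for 50% inhibition of growth.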 Activity calls are given as the source filed them. Cut-off read from the data, not from the text of the source: active = GI50 up to about 1.1 µM and inactive = higher.

Experiments:
Experiment in all cases: NCI tumour cell line growth inhibition, 48 h
SF-539 = system: SF-539
CAKI-1 = system: CAKI-1
Malme-3M = system: Malme-3M
HL-60 = system: HL-60
HCT-116 = system: HCT-116
EKVX = system: EKVX
RXF 631 = system: RXF 631
CCRF-CEM = system: CCRF-CEM
M14 = system: M14
NCI-H226 = system: NCI-H226
HCT-15 = system: HCT-15
ACHN = system: ACHN
NCI-H460 = system: NCI-H460
A549 = system: A549
A498 = system: A498
SK-MEL-28 = system: SK-MEL-28
OVCAR-8 = system: OVCAR-8
OVCAR-3 = system: OVCAR-3
HOP-92 = system: HOP-92
SF-268 = system: SF-268
OVCAR-5 = system: OVCAR-5
UACC-62 = system: UACC-62
KM-20L2 = system: KM-20L2
M19-MEL = system: M19-MEL
SW-620 = system: SW-620
MOLT-4 = system: MOLT-4
SR = system: SR
HT-29 = system: HT-29
SNB-78 = system: SNB-78
DLD-1 = system: DLD-1
SK-MEL-2 = system: SK-MEL-2
K562 = system: K562
UACC-257 = system: UACC-257
KM12 = system: KM12
786-0 = system: 786-0
RXF 393 = system: RXF 393
UO-31 = system: UO-31
LXFL 529 = system: LXFL 529
IGROV-1 = system: IGROV-1
SNB-75 = system: SNB-75
OVCAR-4 = system: OVCAR-4
NCI-H23 = system: NCI-H23
DMS-114 = system: DMS-114
RPMI-8226 = system: RPMI-8226
HOP-62 = system: HOP-62
HCC 2998 = system: HCC 2998
SF-295 = system: SF-295
TK-10 = system: TK-10
LOX IMVI = system: LOX IMVI
HOP-18 = system: HOP-18
SK-MEL-5 = system: SK-MEL-5
DMS-273 = system: DMS-273
SNB-19 = system: SNB-19
XF498 = system: XF498
SN12C = system: SN12C
U-251 = system: U-251
COLO 205 = system: COLO 205
SK-OV-3 = system: SK-OV-3

With `O=C1/C(=C/c2ccc(Cl)cc2)CCC1CCN1CCOCC1` (stereo not given) the GI50 (SF-539) was > 100 µM (inactive), the GI50 (CAKI-1) was 76.2 µM (inactive) and the GI50 (Malme-3M) was > 100 µM (inactive). The GI50 (HL-60) was 23 µM (inactive), the GI50 (HCT-116) was 53 µM (inactive) and the GI50 (EKVX) was > 100 µM (inactive). For the same molecule, the GI50 (RXF 631) was 46.6 µM (inactive), the GI50 (CCRF-CEM) was 29 µM (inactive) and the GI50 (M14) was > 100 µM (inactive). For the same molecule, the GI50 (NCI-H226) was > 100 µM (inactive), the GI50 (HCT-15) was 36.3 µM and the GI50 (ACHN) was 60.4 µM (inactive). The GI50 (NCI-H460) was 38.9 µM (inactive), the GI50 (A549) was > 100 µM (inactive) and the GI50 (A498) was 61.1 µM (inactive). The GI50 (SK-MEL-28) was > 100 µM (inactive), the GI50 (OVCAR-8) was > 100 µM (inactive) and the GI50 (OVCAR-3) was 59.3 µM (inactive). For the same molecule, the GI50 (HOP-92) was 75.7 µM (inactive), the GI50 (SF-268) was 54.3 µM (inactive) and the GI50 (OVCAR-5) was > 100 µM (inactive). The GI50 (UACC-62) was > 100 µM (inactive), the GI50 (KM-20L2) was 43.8 µM (inactive) and the GI50 (M19-MEL) was 72.9 µM (inactive). The GI50 (SW-620) was > 100 µM (inactive), the GI50 (MOLT-4) was 26.1 µM (inactive) and the GI50 (SR) was 26.1 µM (inactive). The GI50 (HT-29) was 32.8 µM (inactive), the GI50 (SNB-78) was > 100 µM (inactive) and the GI50 (DLD-1) was 61 µM (inactive). For the same molecule, the GI50 (SK-MEL-2) was > 100 µM (inactive), the GI50 (K562) was 25.8 µM (inactive) and the GI50 (UACC-257) was > 100 µM (inactive). For the same molecule, the GI50 (KM12) was 40.8 µM (inactive), the GI50 (786-0) was 72.3 µM (inactive) and the GI50 (RXF 393) was 47.9 µM (inactive). The GI50 (UO-31) was 68.7 µM (inactive), the GI50 (LXFL 529) was 56.4 µM (inactive) and the GI50 (IGROV-1) was > 100 µM (inactive). For the same molecule, the GI50 (SNB-75) was > 100 µM (inactive), the GI50 (OVCAR-4) was 37.8 µM (inactive) and the GI50 (NCI-H23) was 86.1 µM (inactive). The GI50 (DMS-114) was 28.7 µM (inactive), the GI50 (RPMI-8226) was 23.8 µM (inactive) and the GI50 (HOP-62) was 72.1 µM (inactive). The GI50 (HCC 2998) was 46.9 µM (inactive), the GI50 (SF-295) was > 100 µM (inactive) and the GI50 (TK-10) was > 100 µM (inactive). For the same molecule, the GI50 (LOX IMVI) was 39.8 µM (inactive), the GI50 (HOP-18) was > 100 µM (inactive) and the GI50 (SK-MEL-5) was 55.5 µM (inactive). The GI50 (DMS-273) was 57 µM (inactive), the GI50 (SNB-19) was > 100 µM (inactive) and the GI50 (XF498) was 56.6 µM (inactive). For the same molecule, the GI50 (SN12C) was 72.1 µM (inactive).

For `OCC12C3C4C1C1C2C3C41CO` (stereo not given), the GI50 (SF-539) was > 100 µM (inactive), the GI50 (CAKI-1) was > 100 µM (inactive) and the GI50 (Malme-3M) was > 100 µM (inactive). The GI50 (EKVX) was > 100 µM (inactive), the GI50 (RXF 631) was > 100 µM (inactive) and the GI50 (CCRF-CEM) was > 100 µM (inactive). The GI50 (M14) was > 100 µM (inactive), the GI50 (NCI-H226) was > 100 µM (inactive) and the GI50 (HCT-15) was > 100 µM. The GI50 (ACHN) was > 100 µM (inactive), the GI50 (NCI-H460) was > 100 µM (inactive) and the GI50 (A549) was > 100 µM (inactive). The GI50 (A498) was > 100 µM (inactive), the GI50 (SK-MEL-28) was > 100 µM (inactive) and the GI50 (U-251) was > 100 µM (inactive). The GI50 (OVCAR-8) was > 100 µM (inactive), the GI50 (OVCAR-3) was > 100 µM (inactive) and the GI50 (HOP-92) was > 100 µM (inactive). The GI50 (SF-268) was > 100 µM (inactive), the GI50 (OVCAR-5) was > 100 µM (inactive) and the GI50 (UACC-62) was > 100 µM (inactive). For the same molecule, the GI50 (KM-20L2) was > 100 µM (inactive), the GI50 (M19-MEL) was > 100 µM (inactive) and the GI50 (SW-620) was > 100 µM (inactive). The GI50 (MOLT-4) was > 100 µM (inactive), the GI50 (COLO 205) was > 100 µM (inactive) and the GI50 (HT-29) was > 100 µM (inactive). The GI50 (SNB-78) was > 100 µM (inactive), the GI50 (DLD-1) was > 100 µM (inactive) and the GI50 (K562) was > 100 µM (inactive). The GI50 (UACC-257) was > 100 µM (inactive), the GI50 (786-0) was > 100 µM (inactive) and the GI50 (UO-31) was > 100 µM (inactive). For the same molecule, the GI50 (LXFL 529) was > 100 µM (inactive), the GI50 (IGROV-1) was > 100 µM (inactive) and the GI50 (OVCAR-4) was > 100 µM (inactive). For the same molecule, the GI50 (NCI-H23) was > 100 µM (inactive), the GI50 (DMS-114) was > 100 µM (inactive) and the GI50 (RPMI-8226) was > 100 µM (inactive). The GI50 (HOP-62) was > 100 µM (inactive), the GI50 (HCC 2998) was > 100 µM (inactive) and the GI50 (SF-295) was > 100 µM (inactive). The GI50 (TK-10) was > 100 µM (inactive), the GI50 (LOX IMVI) was > 100 µM (inactive) and the GI50 (SK-OV-3) was > 100 µM (inactive). The GI50 (HOP-18) was > 100 µM (inactive), the GI50 (SK-MEL-5) was > 100 µM (inactive) and the GI50 (SNB-19) was > 100 µM (inactive). The GI50 (XF498) was > 100 µM (inactive) and the GI50 (SN12C) was > 100 µM (inactive).
